Numbering of substitutions follows the chain as printed.
Experiments:
[1] = target: Dual specificity protein kinase CLK2 (Homo sapiens, UniProt P49760); experiment: Selectivity interaction (Kinase panel (Z-LYTE Assay)) EUB0001632a CLK2; conditions: at 10 µM
[2] = target: Voltage-gated inwardly rectifying potassium channel KCNH2 (Homo sapiens, UniProt Q12809); experiment: Selectivity interaction (HERG dofetilide binding assay, human recombinant ) EUB0000877a KCNH2
[3] = tested on: Platelet-derived growth factor receptor alpha (Homo sapiens), P16234 [T674I]; experiment: (§1) Selectivity interaction (Kinase panel (Carna Biosciences)) EUB0001542aTs PDGFRA; conditions: at 1 µM
Chain of Platelet-derived growth factor receptor alpha (Homo sapiens), P16234 [T674I] (P16234 whole entry T674I): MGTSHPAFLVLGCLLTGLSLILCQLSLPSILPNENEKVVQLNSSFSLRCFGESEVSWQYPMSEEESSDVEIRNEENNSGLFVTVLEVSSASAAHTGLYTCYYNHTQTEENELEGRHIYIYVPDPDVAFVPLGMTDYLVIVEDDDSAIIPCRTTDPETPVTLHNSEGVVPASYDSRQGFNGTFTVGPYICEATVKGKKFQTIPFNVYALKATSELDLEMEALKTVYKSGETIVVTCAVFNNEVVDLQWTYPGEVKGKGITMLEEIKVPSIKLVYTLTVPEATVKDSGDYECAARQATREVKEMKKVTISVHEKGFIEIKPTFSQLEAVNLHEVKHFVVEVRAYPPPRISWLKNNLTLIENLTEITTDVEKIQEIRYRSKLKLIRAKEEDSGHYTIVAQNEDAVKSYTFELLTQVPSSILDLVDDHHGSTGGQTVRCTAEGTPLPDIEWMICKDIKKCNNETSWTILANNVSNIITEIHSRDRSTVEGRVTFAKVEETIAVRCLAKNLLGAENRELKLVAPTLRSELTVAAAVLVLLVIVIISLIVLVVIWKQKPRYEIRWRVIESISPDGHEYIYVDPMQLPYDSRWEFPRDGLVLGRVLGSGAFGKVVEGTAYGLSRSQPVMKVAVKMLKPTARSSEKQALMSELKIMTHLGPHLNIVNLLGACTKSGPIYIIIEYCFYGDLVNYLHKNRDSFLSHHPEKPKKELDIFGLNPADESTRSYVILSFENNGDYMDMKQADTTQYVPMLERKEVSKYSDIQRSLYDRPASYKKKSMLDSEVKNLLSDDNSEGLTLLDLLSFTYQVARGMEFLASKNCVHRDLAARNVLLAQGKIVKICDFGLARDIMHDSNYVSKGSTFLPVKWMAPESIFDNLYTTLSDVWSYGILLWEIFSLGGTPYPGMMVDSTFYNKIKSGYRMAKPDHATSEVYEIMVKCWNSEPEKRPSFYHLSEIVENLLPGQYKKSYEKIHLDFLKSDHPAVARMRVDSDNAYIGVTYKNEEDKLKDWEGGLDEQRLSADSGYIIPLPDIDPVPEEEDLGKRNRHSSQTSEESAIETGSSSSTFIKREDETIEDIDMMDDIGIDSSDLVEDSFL

[4] = target: Platelet-derived growth factor receptor alpha (Homo sapiens, UniProt P16234); experiment: as §1; conditions: at 1 µM
Chain of Platelet-derived growth factor receptor alpha (P16234 whole entry): as the sequence (P16234 whole entry T674I) above, with I674T counted along it

[5] = tested on: Platelet-derived growth factor receptor alpha (Homo sapiens), P16234 [V561D]; experiment: as §1; conditions: at 1 µM
Chain of Platelet-derived growth factor receptor alpha (Homo sapiens), P16234 [V561D] (P16234 whole entry V561D): as the sequence (P16234 whole entry T674I) above, with V561D, I674T counted along it

[6] = tested on: T1, Receptor-type tyrosine-protein kinase FLT3 (Homo sapiens), P36888 [D835Y]; experiment: (§2) Selectivity interaction (KinomeScan (DiscoverX)) EUB0000618a FLT3; conditions: at 10 µM
T1 sequence (whole entry): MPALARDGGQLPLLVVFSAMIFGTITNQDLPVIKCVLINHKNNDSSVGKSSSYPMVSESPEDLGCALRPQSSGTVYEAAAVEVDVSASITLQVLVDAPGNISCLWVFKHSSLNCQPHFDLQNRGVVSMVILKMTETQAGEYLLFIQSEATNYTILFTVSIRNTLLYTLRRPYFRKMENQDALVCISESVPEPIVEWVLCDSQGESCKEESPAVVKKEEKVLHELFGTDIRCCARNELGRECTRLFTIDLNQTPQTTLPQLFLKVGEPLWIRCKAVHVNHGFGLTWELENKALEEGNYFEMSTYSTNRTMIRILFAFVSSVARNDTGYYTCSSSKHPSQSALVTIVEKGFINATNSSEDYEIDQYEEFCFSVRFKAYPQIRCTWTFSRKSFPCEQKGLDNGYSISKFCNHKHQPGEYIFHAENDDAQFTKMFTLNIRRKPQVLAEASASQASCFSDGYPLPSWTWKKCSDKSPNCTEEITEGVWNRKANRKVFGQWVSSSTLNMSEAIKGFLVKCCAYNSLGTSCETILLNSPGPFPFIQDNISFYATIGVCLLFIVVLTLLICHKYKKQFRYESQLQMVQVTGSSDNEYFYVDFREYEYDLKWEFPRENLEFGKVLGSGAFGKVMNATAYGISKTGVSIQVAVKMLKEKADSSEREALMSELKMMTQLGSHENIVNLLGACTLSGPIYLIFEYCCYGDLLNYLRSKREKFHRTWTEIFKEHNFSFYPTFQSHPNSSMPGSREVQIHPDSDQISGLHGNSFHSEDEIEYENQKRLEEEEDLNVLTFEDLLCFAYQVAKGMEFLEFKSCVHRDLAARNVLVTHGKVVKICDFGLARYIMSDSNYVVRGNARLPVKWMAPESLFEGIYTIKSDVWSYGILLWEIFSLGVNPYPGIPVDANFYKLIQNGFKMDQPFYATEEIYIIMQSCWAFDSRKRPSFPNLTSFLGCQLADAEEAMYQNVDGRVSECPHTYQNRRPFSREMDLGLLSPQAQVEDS

[7] = tested on: T2, Receptor-type tyrosine-protein kinase FLT3 (Homo sapiens), P36888 [R834Q]; experiment: as §2; conditions: at 10 µM
T2 sequence (whole entry): T1 sequence (whole entry) with R834Q, Y835D

[8] = tested on: Receptor-type tyrosine-protein kinase FLT3 (Homo sapiens), P36888 [UNDEFINED MUTATION]; experiment: as §2; conditions: at 10 µM
[9] = target: Serine/threonine-protein kinase WNK1 (Homo sapiens) (UniProt Q9H4A3); experiment: Selectivity interaction (ActivX KiNativ screen (kinase selectivity in THP-1 cell lysates)) EUB0000639a WNK1; type: subcellular; conditions: lysate, at 1 µM
Chain of Serine/threonine-protein kinase WNK1 (Homo sapiens) (Q9H4A3 whole entry, looked up): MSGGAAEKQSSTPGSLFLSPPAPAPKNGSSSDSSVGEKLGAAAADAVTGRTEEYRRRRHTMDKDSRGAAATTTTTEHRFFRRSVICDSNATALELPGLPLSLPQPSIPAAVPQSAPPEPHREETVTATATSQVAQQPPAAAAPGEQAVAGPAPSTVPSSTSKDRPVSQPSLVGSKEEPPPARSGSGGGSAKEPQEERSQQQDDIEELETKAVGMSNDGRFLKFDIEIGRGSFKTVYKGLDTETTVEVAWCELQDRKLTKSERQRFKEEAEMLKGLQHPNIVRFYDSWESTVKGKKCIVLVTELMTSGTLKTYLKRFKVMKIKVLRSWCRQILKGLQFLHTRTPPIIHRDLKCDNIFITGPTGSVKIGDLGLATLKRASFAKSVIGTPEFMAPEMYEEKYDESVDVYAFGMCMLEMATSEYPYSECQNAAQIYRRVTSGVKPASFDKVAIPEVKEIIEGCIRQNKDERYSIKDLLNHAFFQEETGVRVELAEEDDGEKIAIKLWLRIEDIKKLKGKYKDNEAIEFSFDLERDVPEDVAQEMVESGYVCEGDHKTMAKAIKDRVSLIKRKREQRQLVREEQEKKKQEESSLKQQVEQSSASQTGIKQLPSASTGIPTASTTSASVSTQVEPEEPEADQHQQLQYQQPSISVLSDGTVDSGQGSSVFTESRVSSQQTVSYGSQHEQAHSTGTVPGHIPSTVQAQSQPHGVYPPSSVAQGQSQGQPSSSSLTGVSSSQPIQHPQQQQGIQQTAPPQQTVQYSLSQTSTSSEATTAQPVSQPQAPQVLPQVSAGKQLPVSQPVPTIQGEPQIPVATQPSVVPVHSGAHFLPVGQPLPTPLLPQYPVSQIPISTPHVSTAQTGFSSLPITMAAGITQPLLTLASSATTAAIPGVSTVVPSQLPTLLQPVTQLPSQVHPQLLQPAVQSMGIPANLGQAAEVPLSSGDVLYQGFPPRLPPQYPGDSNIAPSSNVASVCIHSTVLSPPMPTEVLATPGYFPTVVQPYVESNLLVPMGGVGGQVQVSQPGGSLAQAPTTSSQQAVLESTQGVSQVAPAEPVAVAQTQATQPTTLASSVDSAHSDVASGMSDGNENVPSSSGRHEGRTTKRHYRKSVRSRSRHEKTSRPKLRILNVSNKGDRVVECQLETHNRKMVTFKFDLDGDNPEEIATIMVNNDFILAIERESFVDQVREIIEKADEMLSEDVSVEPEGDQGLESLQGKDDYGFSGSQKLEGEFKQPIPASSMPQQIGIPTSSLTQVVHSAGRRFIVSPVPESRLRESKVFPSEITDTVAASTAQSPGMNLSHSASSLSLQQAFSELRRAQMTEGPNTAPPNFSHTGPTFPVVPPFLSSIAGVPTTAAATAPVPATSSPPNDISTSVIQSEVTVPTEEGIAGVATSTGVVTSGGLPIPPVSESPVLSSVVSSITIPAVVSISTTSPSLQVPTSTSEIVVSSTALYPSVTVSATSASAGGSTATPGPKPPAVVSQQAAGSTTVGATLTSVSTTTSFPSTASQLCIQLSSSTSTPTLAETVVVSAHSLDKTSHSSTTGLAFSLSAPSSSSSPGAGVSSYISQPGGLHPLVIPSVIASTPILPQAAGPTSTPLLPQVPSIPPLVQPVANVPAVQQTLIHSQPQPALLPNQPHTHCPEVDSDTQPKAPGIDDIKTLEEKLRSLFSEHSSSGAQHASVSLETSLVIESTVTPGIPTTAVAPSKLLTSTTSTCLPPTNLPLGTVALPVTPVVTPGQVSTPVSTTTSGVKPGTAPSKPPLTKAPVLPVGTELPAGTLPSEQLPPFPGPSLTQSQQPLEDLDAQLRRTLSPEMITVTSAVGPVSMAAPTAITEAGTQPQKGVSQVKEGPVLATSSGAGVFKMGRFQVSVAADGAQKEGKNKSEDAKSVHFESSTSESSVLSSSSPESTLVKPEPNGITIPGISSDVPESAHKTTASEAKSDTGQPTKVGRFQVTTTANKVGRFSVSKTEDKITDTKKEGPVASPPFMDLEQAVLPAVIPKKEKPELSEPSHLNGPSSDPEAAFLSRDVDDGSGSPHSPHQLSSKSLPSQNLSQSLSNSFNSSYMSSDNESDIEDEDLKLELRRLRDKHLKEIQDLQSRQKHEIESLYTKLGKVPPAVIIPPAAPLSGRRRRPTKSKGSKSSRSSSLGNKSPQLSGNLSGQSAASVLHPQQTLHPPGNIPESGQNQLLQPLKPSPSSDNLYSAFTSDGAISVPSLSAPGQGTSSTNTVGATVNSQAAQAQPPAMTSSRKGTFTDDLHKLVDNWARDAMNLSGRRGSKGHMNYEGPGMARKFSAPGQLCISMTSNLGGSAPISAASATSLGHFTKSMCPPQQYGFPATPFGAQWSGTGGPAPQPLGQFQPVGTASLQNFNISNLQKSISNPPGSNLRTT

[10] = target: T3, Uncharacterized serine/threonine-protein kinase SBK3 (Homo sapiens) (UniProt P0C264); experiment: Selectivity interaction (Ambit KINOMEscan and KiNATiv profiling in Jurkat cells) EUB0000090b SBK3; type: cell-based; conditions: at 1 µM
T3 sequence (whole entry): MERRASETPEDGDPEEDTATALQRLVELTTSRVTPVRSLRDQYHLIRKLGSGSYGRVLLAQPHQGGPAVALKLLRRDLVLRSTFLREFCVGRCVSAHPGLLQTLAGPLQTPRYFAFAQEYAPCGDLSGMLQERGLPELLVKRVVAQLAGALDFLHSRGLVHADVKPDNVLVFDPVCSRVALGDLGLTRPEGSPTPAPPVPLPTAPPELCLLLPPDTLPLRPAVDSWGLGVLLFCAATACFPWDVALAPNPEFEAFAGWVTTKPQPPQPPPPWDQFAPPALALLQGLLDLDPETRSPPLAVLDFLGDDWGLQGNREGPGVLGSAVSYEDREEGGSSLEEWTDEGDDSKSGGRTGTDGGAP

Chain of Voltage-gated inwardly rectifying potassium channel KCNH2 (Q12809 whole entry): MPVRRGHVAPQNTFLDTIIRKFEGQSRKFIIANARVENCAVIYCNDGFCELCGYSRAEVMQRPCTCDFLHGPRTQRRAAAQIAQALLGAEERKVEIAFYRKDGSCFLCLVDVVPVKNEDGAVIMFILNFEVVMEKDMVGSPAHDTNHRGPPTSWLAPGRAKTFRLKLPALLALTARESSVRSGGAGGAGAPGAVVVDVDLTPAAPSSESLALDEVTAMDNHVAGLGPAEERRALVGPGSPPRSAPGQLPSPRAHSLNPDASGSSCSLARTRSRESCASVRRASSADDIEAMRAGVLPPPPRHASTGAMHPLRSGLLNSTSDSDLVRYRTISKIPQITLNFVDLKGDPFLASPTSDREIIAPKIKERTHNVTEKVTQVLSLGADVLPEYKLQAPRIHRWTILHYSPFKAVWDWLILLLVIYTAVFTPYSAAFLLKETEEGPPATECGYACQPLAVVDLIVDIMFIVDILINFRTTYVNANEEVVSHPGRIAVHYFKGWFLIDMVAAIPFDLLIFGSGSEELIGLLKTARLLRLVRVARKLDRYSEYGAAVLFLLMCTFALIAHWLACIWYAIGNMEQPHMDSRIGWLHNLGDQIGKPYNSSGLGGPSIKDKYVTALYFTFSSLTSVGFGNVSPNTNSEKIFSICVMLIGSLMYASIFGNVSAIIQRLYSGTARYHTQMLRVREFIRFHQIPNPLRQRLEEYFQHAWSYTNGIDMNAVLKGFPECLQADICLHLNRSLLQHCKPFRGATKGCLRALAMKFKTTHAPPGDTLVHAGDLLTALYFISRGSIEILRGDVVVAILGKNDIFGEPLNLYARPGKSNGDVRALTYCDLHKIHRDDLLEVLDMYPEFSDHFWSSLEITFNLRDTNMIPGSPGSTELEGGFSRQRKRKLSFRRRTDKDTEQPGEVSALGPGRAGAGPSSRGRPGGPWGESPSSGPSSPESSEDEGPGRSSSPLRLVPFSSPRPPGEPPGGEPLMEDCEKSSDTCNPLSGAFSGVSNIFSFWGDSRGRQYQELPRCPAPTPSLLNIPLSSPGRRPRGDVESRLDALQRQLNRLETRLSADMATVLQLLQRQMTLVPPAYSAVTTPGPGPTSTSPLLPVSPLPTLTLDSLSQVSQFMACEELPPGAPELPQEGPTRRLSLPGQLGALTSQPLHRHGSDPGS

With `Cn1cc(-n2cnc3c(NCc4nc5cc(Cl)c(Cl)cc5[nH]4)nc(N4CCOCC4)nc32)cn1` the % of control [1] was 4.94%.
Work on `CCC(=O)N1CC[C@H](Nc2ncnc3c2CN(c2cnc(OC)c(C(F)(F)F)c2)CC3)C1` [LENIOLISIB] yielded an IC50 [2] greater than 30 µM.
Work on `Cn1cc(Nc2nccc(N3CC4CCC(C3)N4C(=O)[C@@H]3CC3(F)F)n2)cn1` yielded a % of inhibition [3] of 78%, a % of inhibition [4] of 70% and a % of inhibition [5] of 60%.
For `O[C@H]1CC[C@H](Nc2ncc3nc(Nc4c(F)cc(F)cc4F)n([C@H]4CCOC4)c3n2)CC1`, the % of control [6] was 100%, the % of control [7] was 91% and the % of control [8] was 90%.
Work on `CC[C@@H]1[C@H](F)C(=O)N[C@@H]1COc1nccc2cc(C(N)=O)c(OC)cc12` [ZIMLOVISERTIB] yielded a % of inhibition [9] of -7.7%.
`CN(C)C/C=C/C(=O)Nc1ccc(C(=O)N2CCCC(Nc3ncc(Cl)c(-c4c[nH]c5ccccc45)n3)C2)cc1` (stereo not given) showed a % of control [10] of 82%.

From ChEMBL document CHEMBL5465560, “Selectivity Literature for EUbOPEN Chemogenomic Library” (2024)
